# Test: Kinetic study of reaction with glutathione (GSH), half-life by 1H NMR (disappearance of vinyl group)
# Details: second order kinetics, 1.0 equiv. glutathione, phosphate buffer pH 7.3 in D2O:(CD3)2SO = 2:1, 1H NMR
# Experimental: The reactivity of the vinyl sulfonimidamides was next examined under biologically relevant conditions using glutathione (GSH) as the nucleophile at pH 7.3 (Scheme 4).[32] The half-life (t1/2) was determined using ^1H NMR analysis, with the disappearance of the vinyl group monitored as a function of time (full experimental details are provided in the ESI ^†). […] Due to the rapid reaction rates, the half-life for the majority of substrates was calculated using second-order kinetics. However, the half-life of unfunctionalized α-Me and β-Me-substituted sulfonimidamide derivatives were determined with pseudo-first-order kinetics using six equivalents of glutathione.
# Reaction was conducted in a mixture of buffer solution and deuterated DMSO
# (Buffer:(CD3)2SO = 2:1). A relatively high (CD3)2SO ratio was employed due to the insolubility
# of less polar substrates in the buffer solution.
# Buffer solution containing 0.0648 mol/L disodium hydrogen phosphate and 0.0153 mol/L
# potassium dihydrogen phosphate at p H 7.3[10] was prepared using d euterium oxide and
# stored at 20 °C. […] The stock solution […]
# For the majority of substrates, the half-life was determined using second order kinetics with […]
# was measured and plotted as the inverse against time. The half-life was calculated through […]
# starting material was plotted as natural log and the half-life was calculated through the best-
smiles,measurement,value
C=CS(=O)(=NS(C)(=O)=O)N1CCOCC1 (stereo not shown) [Compound 3e],Half-life (t1/2) of reaction with GSH,too fast to be determined
